Test results reported in PMC10374545, “A small molecule inhibitor of PTP1B and PTPN2 enhances T cell anti-tumor immunity” (Nature Communications, 2023).
Values joined by “and” are separate entries in the source; they are usually repeats but may differ in a detail not shown here. Equal values may be shown once.

Assays:
AT3-OVA mammary tumors = experiment: AT3-OVA mammary tumor growth in C57BL/6 mice; type: in vivo, mouse; design: Tumour weights, individual mice: unit not given here; conditions: for Tumour growth, individual mice: Figure 5A; for Tumour growth, single mice: sizes in mm^2, Fig. 3A, listed as CMP-182, 10 mg/kg
Experimental: Male or female mice were injected subcutaneously with 5 × 10^5 MC38 tumor cells resuspended in 100 μl D-PBS into the flank. Alternatively, female mice were injected orthotopically with 5 × 10^5 AT3 or AT3-OVA or PTPN2-deleted AT3 or AT3-OVA tumor cells resuspended in 20 μl D-PBS into the fourth mammary fat pad. Tumor sizes were measured in two dimensions (mm^2) using electronic callipers two to three times per week as soon as tumors were palpable (20–25 mm^2).

[1] = test system: STAT-5 Y694 phosphorylation in CD8+ OT-I cells; experiment: Basal and IL-2-induced STAT-5 Y694 phosphorylation in activated OT-I cells; type: cell-based, mouse; conditions: for p-STAT-5 MFI, single replicates: 1 μM, IL-2 5 ng/ml, Fig. 2F raw data, listed as CMP-182; for p-STAT-5, group mean (Mean 2): IL-2 5 ng, N 6
Experimental: For assessing IL-2-induced STAT-5 Y694 phosphorylation (p-STAT-5) in activated OT-I cells, single cell suspension of OT-I cells from the lymph nodes of OT-I;Ptpn2^fl/fl mice were stimulated with 1 nM […] (N4) for 16 h. […] Reactions were terminated by washing the cells with ice-cold PBS and then stained with fixable viable dye and fluorophore-conjugated antibodies to CD8 on ice for 15 min. Cells were then washed and fixed with 4% (w/w) paraformaldehyde (BD Cytofix™Fixation Buffer) at room temperature for 30 min and permeabilised with 90% (v/v) methanol at −20 °C for 30 min. Permeabilised cells were incubated with a rabbit antibody specific for p-STAT-5 (p-STAT-5; D47E7, Cell Signaling Technology) for 60 min at room temperature, washed thrice with PBS and then stained with goat anti-rabbit IgG (H + L) F(ab’)2 fragment conjugated to Alexa Fluor 647 (Jackson ImmunoResearch Labs; West Grove, PA) to monitor for p-STAT-5 in CD8^+ OT-I cells by flow cytometry.

SMILES: CC(C)(O)CCOc1ccc2cc(O)c(N3CC(=O)NS3(=O)=O)c(F)c2c1 [Compound 182, 5-(1-Fluoro-3-hydroxy-7-(3-hydroxy-3-methylbutoxy)naphthalen-2-yl)−1,2,5-thiadiazolidin-3-one 1,1-dioxide]
- repression of tumor growth, dosing every two days compared with every three days (AT3-OVA mammary tumors; 10 mg/kg i.v.): more pronounced
- AT3-OVA tumor growth, administration every three days (AT3-OVA mammary tumors; 10 mg/kg i.v., days 9-27, Supplementary Fig. 8): represses
- growth of AT3-OVA mammary tumors (AT3-OVA mammary tumors; 10 mg/kg intravenously every 2 days or every 3 days): effectively repressed the growth
- Tumour weight d21 (median) (AT3-OVA mammary tumors; AT-3-OVA, Figure 3A, column B, n=8): 100.0, n=8
- Tumour weights, individual mice (AT3-OVA mammary tumors; C57BL/6, CMP-182 10 mg, n=8, Figure 5B): 126 and 340 and 344 and 76 and 85 and 190 and 183 and 281
- Tumour growth, individual mice (AT3-OVA mammary tumors; C57BL/6, CMP-182 10 mg, n=8, day 0 post injection, in mm2): 38.86 and 38.76 and 36.96 and 20 and 19.89 and 39.65 and 32.33 and 44.53
- Tumour growth, individual mice (AT3-OVA mammary tumors; C57BL/6, CMP-182 10 mg, n=8, day 2 post injection, in mm2): 46.62 and 45 and 45.75 and 21.2 and 22.26 and 46.15 and 36.4 and 52
- Tumour growth, individual mice (AT3-OVA mammary tumors; C57BL/6, CMP-182 10 mg, n=8, day 4 post injection, in mm2): 40.6 and 37.95 and 45.6 and 22.4 and 21.42 and 37.21 and 29.5 and 55.61
- Tumour growth, individual mice (AT3-OVA mammary tumors; C57BL/6, CMP-182 10 mg, n=8, day 7 post injection, in mm2): 35.1 and 40.02 and 49.4 and 25.2 and 27.54 and 44.85 and 32.5 and 53.6
- Tumour growth, individual mice (AT3-OVA mammary tumors; C57BL/6, CMP-182 10 mg, n=8, day 9 post injection, in mm2): 40.2 and 41.76 and 56.44 and 28.35 and 33.04 and 52.56 and 37.95 and 65.25
- Tumour growth, individual mice (AT3-OVA mammary tumors; C57BL/6, CMP-182 10 mg, n=8, day 12 post injection, in mm2): 40.8 and 47.74 and 66.43 and 30.15 and 33.63 and 55.5 and 42 and 70.2
- Tumour growth, individual mice (AT3-OVA mammary tumors; C57BL/6, CMP-182 10 mg, n=8, day 15 post injection, in mm2): 42 and 55.44 and 75.75 and 31.5 and 34.22 and 60.84 and 45.26 and 76
- Tumour size AT-3-OVA (group mean) (AT3-OVA mammary tumors; C57BL/6 n=8, time point 6, in mm2): 21.8
- Tumour size AT-3-OVA (group mean) (AT3-OVA mammary tumors; C57BL/6 n=8, time point 8, in mm2): 21.97
- Tumour size AT-3-OVA (group mean) (AT3-OVA mammary tumors; C57BL/6 n=8, time point 10, in mm2): 23.3
- Tumour size AT-3-OVA (group mean) (AT3-OVA mammary tumors; C57BL/6 n=8, time point 13, in mm2): 25.76
- Tumour size AT-3-OVA (group mean) (AT3-OVA mammary tumors; C57BL/6 n=8, time point 15, in mm2): 29.09
- Tumour size AT-3-OVA (group mean) (AT3-OVA mammary tumors; C57BL/6 n=8, time point 17, in mm2): 31.79
- Tumour size AT-3-OVA (group mean) (AT3-OVA mammary tumors; C57BL/6 n=8, time point 19, in mm2): 33.9
- Tumour size AT-3-OVA (group mean) (AT3-OVA mammary tumors; C57BL/6 n=8, time point 21, in mm2): 36.99
- Tumour size AT-3-OVA (group mean) (AT3-OVA mammary tumors; C57BL/6 n=8, time point 23, in mm2): 41.18
- Tumour size AT-3-OVA, mean over all time points (AT3-OVA mammary tumors; C57BL/6 n=8, two-way RM ANOVA column mean, in mm2): 29.53
- Tumour growth, single mice (AT3-OVA mammary tumors; day 6 post injection (first dose), 10 mg/kg i.v., in mm2): 22.54 and 20.7 and 19.36 and 20.25 and 18.49 and 22.09 and 26.95 and 24
- Tumour growth, single mice (AT3-OVA mammary tumors; day 8 post injection, 10 mg/kg i.v., in mm2): 22.08 and 20.7 and 20.68 and 20.91 and 19.78 and 21.15 and 25.97 and 24.48
- Tumour growth, single mice (AT3-OVA mammary tumors; day 10 post injection, 10 mg/kg i.v., in mm2): 27.56 and 22.95 and 17.6 and 23.1 and 20.64 and 23.04 and 23.65 and 27.84
- Tumour growth, single mice (AT3-OVA mammary tumors; day 15 post injection, 10 mg/kg i.v., in mm2): 37.95 and 25.76 and 21.12 and 24.36 and 20.64 and 28.62 and 35.75 and 38.5
- Tumour growth, single mice (AT3-OVA mammary tumors; day 23 post injection, 10 mg/kg i.v., in mm2): 43.55 and 30 and 34.02 and 32.76 and 29.15 and 54.51 and 48.18 and 57.27
- p-STAT-5 MFI, single replicates ([1]; time 0): 5942 and 5539 and 8398 and 8753 and 4540 and 4913
- p-STAT-5 MFI, single replicates ([1]; time 5): 14341 and 15725 and 15901 and 18555 and 14928 and 16788
- p-STAT-5 MFI, single replicates ([1]; time 15): 16676 and 18523 and 19580 and 20940 and 16523 and 19213
- p-STAT-5 MFI, single replicates ([1]; time 30): 16027 and 18696 and 19133 and 19342 and 15170 and 18785
- p-STAT-5 MFI, single replicates ([1]; time 60): 13163 and 13881 and 14770 and 14670 and 10937 and 14331
- p-STAT-5 MFI, single replicates ([1]; time 120): 10820 and 12152 and 10493 and 12920 and 10327 and 12862
- basal and IL-2-induced STAT-5 Y694 phosphorylation (p-STAT-5) ([1]; CD8+ T cells): enhanced
- p-STAT-5, column mean ([1]; CD8, IL-2 5 ng, mean over all times, two-way ANOVA, Fig. 2F): 14007
- p-STAT-5, group mean (Mean 2) ([1]; Row 1 (time 0), Fig. 2F): 6348
- p-STAT-5, group mean (Mean 2) ([1]; Row 2 (time 5), Fig. 2F): 16040
- p-STAT-5, group mean (Mean 2) ([1]; Row 3 (time 15), Fig. 2F): 18576
- p-STAT-5, group mean (Mean 2) ([1]; Row 4 (time 30), Fig. 2F): 17859
- p-STAT-5, group mean (Mean 2) ([1]; Row 5 (time 60), Fig. 2F): 13625
- p-STAT-5, group mean (Mean 2) ([1]; Row 6 (time 120), Fig. 2F): 11596
- pSTAT5, single replicates ([1]; N4 1 nM 16 h, then 1 μM 1 h, no IL-2, Fig. 2E raw data, listed as WT+I): 60.1 and 62.9 and 57.6 and 60.3
- pSTAT5%, mean of differences (B - A) ([1]; WT+I vs. WT, 4 pairs, Fig. 2E): 12.98
